Data taken from patent publication US6379649B1, “Imidazo(1,2-a)pyridines as peripheral benzodiazepine receptor binding agents” (Australian Nuclear Science & Technology Organisation, priority 1998, dated 2002).

Test: In vivo biodistribution of radiolabelled compounds in rats
Excerpt: In vivo biodistribution of radiolabelled compounds of the invention indicated high uptake in the tissues which have known PBR sites. Tables 2 to 4 show the biodistribution of the compounds of Examples 1-3, in which the iodine atom is radiolabelled, when administered to rats.

With `CNC(=O)Cc1c(-c2ccc([123I])cc2)nc2ccc(Cl)cn12` [^123-I Example 1] the “Biodistribution (% ID/g organ) Adrenals” value (5 Min) was 4.51 ± 1.32 % ID/g organ, the “Biodistribution (% ID/g organ) Adrenals” value (15 Min) was 7.8 ± 2.16 % ID/g organ and the “Biodistribution (% ID/g organ) Adrenals” value (24 Hrs) was 0.22 ± 0.09 % ID/g organ. The “Biodistribution (% ID/g organ) Adrenals” value (30 Min) was 11 ± 2.57 % ID/g organ, the “Biodistribution (% ID/g organ) Adrenals” value (60 Min) was 11.3 ± 0.87 % ID/g organ and the “Biodistribution (% ID/g organ) Adrenals” value (180 Min) was 9.84 ± 1.69 % ID/g organ. The “Biodistribution (% ID/g organ) Adrenals” value (240 Min) was 6.78 ± 1.27 % ID/g organ, the “Biodistribution (% ID/g organ) Adrenals” value (360 Min) was 5.7 ± 0.15 % ID/g organ and the “Biodistribution (% ID/g organ) Blood” value (5 Min) was 0.25 ± 0.04 % ID/g organ. The “Biodistribution (% ID/g organ) Blood” value (15 Min) was 0.16 ± 0.01 % ID/g organ, the “Biodistribution (% ID/g organ) Blood” value (24 Hrs) was 0.01 ± 0.001 % ID/g organ and the “Biodistribution (% ID/g organ) Blood” value (30 Min) was 0.12 ± 0.01 % ID/g organ. The “Biodistribution (% ID/g organ) Blood” value (60 Min) was 0.1 ± 0.01 % ID/g organ, the “Biodistribution (% ID/g organ) Blood” value (180 Min) was 0.07 ± 0.001 % ID/g organ and the “Biodistribution (% ID/g organ) Blood” value (240 Min) was 0.06 ± 0.01 % ID/g organ. For the same compound, the “Biodistribution (% ID/g organ) Blood” value (360 Min) was 0.05 ± 0.001 % ID/g organ, the “Biodistribution (% ID/g organ) Brain” value (5 Min) was 0.11 ± 0.02 % ID/g organ and the “Biodistribution (% ID/g organ) Brain” value (15 Min) was 0.08 ± 0.01 % ID/g organ. For the same compound, the “Biodistribution (% ID/g organ) Brain” value (24 Hrs) was 0 % ID/g organ, the “Biodistribution (% ID/g organ) Brain” value (30 Min) was 0.06 ± 0.01 % ID/g organ and the “Biodistribution (% ID/g organ) Brain” value (60 Min) was 0.04 ± 0.001 % ID/g organ. For the same compound, the “Biodistribution (% ID/g organ) Brain” value (180 Min) was 0.03 ± 0.001 % ID/g organ, the “Biodistribution (% ID/g organ) Brain” value (240 Min) was 0.02 ± 0.01 % ID/g organ and the “Biodistribution (% ID/g organ) Brain” value (360 Min) was 0.02 ± 0.001 % ID/g organ. The “Biodistribution (% ID/g organ) Heart” value (5 Min) was 3.25 ± 0.58 % ID/g organ, the “Biodistribution (% ID/g organ) Heart” value (15 Min) was 2.09 ± 0.09 % ID/g organ and the “Biodistribution (% ID/g organ) Heart” value (24 Hrs) was 0.02 ± 0.001 % ID/g organ. The “Biodistribution (% ID/g organ) Heart” value (30 Min) was 1.41 ± 0.14 % ID/g organ, the “Biodistribution (% ID/g organ) Heart” value (60 Min) was 1.07 ± 0.09 % ID/g organ and the “Biodistribution (% ID/g organ) Heart” value (180 Min) was 0.68 ± 0.09 % ID/g organ. The “Biodistribution (% ID/g organ) Heart” value (240 Min) was 0.54 ± 0.05 % ID/g organ, the “Biodistribution (% ID/g organ) Heart” value (360 Min) was 0.38 ± 0.02 % ID/g organ and the “Biodistribution (% ID/g organ) Kidney” value (5 Min) was 1.8 ± 0.35 % ID/g organ. The “Biodistribution (% ID/g organ) Kidney” value (15 Min) was 1.66 ± 0.13 % ID/g organ, the “Biodistribution (% ID/g organ) Kidney” value (24 Hrs) was 0.03 ± 0.001 % ID/g organ and the “Biodistribution (% ID/g organ) Kidney” value (30 Min) was 1.25 ± 0.09 % ID/g organ. The “Biodistribution (% ID/g organ) Kidney” value (60 Min) was 0.97 ± 0.07 % ID/g organ, the “Biodistribution (% ID/g organ) Kidney” value (180 Min) was 0.61 ± 0.02 % ID/g organ and the “Biodistribution (% ID/g organ) Kidney” value (240 Min) was 0.5 ± 0.07 % ID/g organ. The “Biodistribution (% ID/g organ) Kidney” value (360 Min) was 0.36 ± 0.01 % ID/g organ, the “Biodistribution (% ID/g organ) Liver” value (5 Min) was 0.94 ± 0.12 % ID/g organ and the “Biodistribution (% ID/g organ) Liver” value (15 Min) was 0.7 ± 0.07 % ID/g organ. For the same compound, the “Biodistribution (% ID/g organ) Liver” value (24 Hrs) was 0.09 ± 0.01 % ID/g organ, the “Biodistribution (% ID/g organ) Liver” value (30 Min) was 0.59 ± 0.04 % ID/g organ and the “Biodistribution (% ID/g organ) Liver” value (60 Min) was 0.47 ± 0.02 % ID/g organ. For the same compound, the “Biodistribution (% ID/g organ) Liver” value (180 Min) was 0.37 ± 0.01 % ID/g organ, the “Biodistribution (% ID/g organ) Liver” value (240 Min) was 0.33 ± 0.04 % ID/g organ and the “Biodistribution (% ID/g organ) Liver” value (360 Min) was 0.27 ± 0.01 % ID/g organ. For the same compound, the “Biodistribution (% ID/g organ) Lungs” value (5 Min) was 2.81 ± 0.49 % ID/g organ, the “Biodistribution (% ID/g organ) Lungs” value (15 Min) was 1.79 ± 0.18 % ID/g organ and the “Biodistribution (% ID/g organ) Lungs” value (24 Hrs) was 0.02 ± 0.001 % ID/g organ. The “Biodistribution (% ID/g organ) Lungs” value (30 Min) was 1.39 ± 0.14 % ID/g organ, the “Biodistribution (% ID/g organ) Lungs” value (60 Min) was 0.97 ± 0.22 % ID/g organ and the “Biodistribution (% ID/g organ) Lungs” value (180 Min) was 0.72 ± 0.05 % ID/g organ. For the same compound, the “Biodistribution (% ID/g organ) Lungs” value (240 Min) was 0.63 ± 0.05 % ID/g organ, the “Biodistribution (% ID/g organ) Lungs” value (360 Min) was 0.44 ± 0.07 % ID/g organ and the “Biodistribution (% ID/g organ) Olfactive bulbs” value (5 Min) was 0.2 ± 0.02 % ID/g organ. For the same compound, the “Biodistribution (% ID/g organ) Olfactive bulbs” value (15 Min) was 0.18 ± 0.03 % ID/g organ, the “Biodistribution (% ID/g organ) Olfactive bulbs” value (24 Hrs) was 0.01 ± 0.001 % ID/g organ and the “Biodistribution (% ID/g organ) Olfactive bulbs” value (30 Min) was 0.13 ± 0.02 % ID/g organ. For the same compound, the “Biodistribution (% ID/g organ) Olfactive bulbs” value (60 Min) was 0.14 ± 0.001 % ID/g organ, the “Biodistribution (% ID/g organ) Olfactive bulbs” value (180 Min) was 0.09 ± 0.02 % ID/g organ and the “Biodistribution (% ID/g organ) Olfactive bulbs” value (240 Min) was 0.07 ± 0.001 % ID/g organ. For the same compound, the “Biodistribution (% ID/g organ) Olfactive bulbs” value (360 Min) was 0.05 ± 0.001 % ID/g organ, the “Biodistribution (% ID/g organ) Testes” value (5 Min) was 0.14 ± 0.03 % ID/g organ and the “Biodistribution (% ID/g organ) Testes” value (15 Min) was 0.22 ± 0.06 % ID/g organ. For the same compound, the “Biodistribution (% ID/g organ) Testes” value (24 Hrs) was 0.01 ± 0.001 % ID/g organ, the “Biodistribution (% ID/g organ) Testes” value (30 Min) was 0.26 ± 0.05 % ID/g organ and the “Biodistribution (% ID/g organ) Testes” value (60 Min) was 0.28 ± 0.05 % ID/g organ. For the same compound, the “Biodistribution (% ID/g organ) Testes” value (180 Min) was 0.25 ± 0.01 % ID/g organ, the “Biodistribution (% ID/g organ) Testes” value (240 Min) was 0.22 ± 0.03 % ID/g organ and the “Biodistribution (% ID/g organ) Testes” value (360 Min) was 0.16 ± 0.03 % ID/g organ.
